Data published in patent US9745291B2, “PRMT5 inhibitors containing a dihydro- or tetrahydroisoquinoline and uses thereof” (Epizyme, Inc., priority 2012, dated 2017).

Biological target: PRMT5/MEP50 (Homo sapiens (Human), UniProt O14744)
Experiment: PRMT5 Biochemical Assay (PRMT5/MEP50 enzyme assay on peptide substrate, 3H-SAM Flashplate)
Details: PRMT5 biochemical assay; read-out: Biochemical IC50
Description: S-adenosylmethionine (SAM), S-adenosylhomocysteine (SAH), bicine, KCl, Tween20, dimethylsulfoxide (DMSO), bovine skin gelatin (BSG), and Tris(2-carboxyethyl)phosphine hydrochloride solution (TCEP) were purchased from Sigma-Aldrich at the highest level of purity possible. ^3H-SAM was purchase from American Radiolabeled Chemicals with a specific activity of 80 Ci/mmol. 384-well streptavidin Flashplates were purchased from PerkinElmer.
Peptide representative of human histone H4 residues 1-15 was synthesized with a C-terminal linker-affinity tag motif and a C-terminal amide cap by 21st Century Biochemicals. […] The sequence was Ac-[…][K-Biot]-amide (SEQ ID NO.:3).
Full-length human MEP50 (NM_024102) clone was amplified from a human testis cDNA library incorporating a 5′ sequence encoding a 6-histidine tag (MHHHHHH)(SEQ ID NO.:5) fused directly to Arg 2 of MEP50. The amplified genes were sublconed into pENTR/D/TEV (Life Technologies) and subsequently transferred by Gateway™ attL×attR recombination to pDEST8 baculvirus expression vector (Life Technologies).
Recombinant baculovirus and Baculovirus-Infected Insect Cells (BIIC) were generated according to Bac-to-Bac kit instructions (Life Technologies) and Wasilko, 2006, respectively. Protein over-expression was accomplished by infecting exponentially growing Spodoptera frugiperda (SF9) cell culture at 1.2×10^6 cell/ml with a 5000 fold dilution of BIIC stock. Infections were carried out at 27° C. for 72 hours, harvested by centrifugation, and stored at −80° C. for purification.
Flag-PRMT5/6His-MeP50 was eluted with 300 mM Imidazole in the same buffer. […] Reference: Wasilko, D. J. and S. E. Lee: “TIPS: titerless infected-cells preservation and scale-up” Bioprocess J., 5 (2006), pp. 29-32.
General Procedure for PRMT5/MEP50 Enzyme Assays on Peptide Substrates.
The assays were all performed in a buffer consisting of 20 mM Bicine (pH=7.6), 1 mM TCEP, 0.005% BSG, and 0.002% Tween20, prepared on the day of use. Compounds in 100% DMSO (1 ul) were spotted into a polypropylene 384-well V-bottom plates (Greiner) using a Platemate Plus outfitted with a 384-channel head (Thermo Scientific). DMSO (1 ul) was added to Columns 11, 12, 23, 24, rows A-H for the maximum signal control and 1 ul of SAH, a known product and inhibitor of PRMT5/MEP50, was added to columns 11, 12, 23, 24, rows I-P for the minimum signal control. A cocktail (40 ul) containing the PRMT5/MEP50 enzyme and the peptide was added by Multidrop Combi (Thermo-Fisher). The compounds were allowed to incubate with PRMT5/MEP50 for 30 min at 25 degrees Celsius, then a cocktail (10 ul) containing ^3H-SAM was added to initiate the reaction (final volume=51 ul).

Sequence of PRMT5/MEP50 (O14744 other isoform, or with tags, fused parts or gaps): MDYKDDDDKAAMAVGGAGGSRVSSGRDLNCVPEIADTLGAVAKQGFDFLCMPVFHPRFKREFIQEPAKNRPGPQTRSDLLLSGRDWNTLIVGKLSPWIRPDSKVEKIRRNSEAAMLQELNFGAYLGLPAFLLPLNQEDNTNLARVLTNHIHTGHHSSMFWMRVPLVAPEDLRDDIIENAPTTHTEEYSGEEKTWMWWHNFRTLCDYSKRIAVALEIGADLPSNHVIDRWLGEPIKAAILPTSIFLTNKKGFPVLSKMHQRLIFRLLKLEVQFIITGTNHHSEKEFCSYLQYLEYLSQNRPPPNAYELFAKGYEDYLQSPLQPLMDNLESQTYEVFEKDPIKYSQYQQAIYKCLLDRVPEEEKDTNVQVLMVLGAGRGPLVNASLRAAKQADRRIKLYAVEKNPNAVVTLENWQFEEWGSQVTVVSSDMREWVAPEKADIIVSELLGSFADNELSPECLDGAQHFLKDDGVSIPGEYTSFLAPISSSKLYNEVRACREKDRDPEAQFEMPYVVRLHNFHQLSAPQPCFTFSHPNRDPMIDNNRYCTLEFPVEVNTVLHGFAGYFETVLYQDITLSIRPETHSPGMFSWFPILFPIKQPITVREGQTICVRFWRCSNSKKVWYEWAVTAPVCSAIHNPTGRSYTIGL
Sequence of PRMT5/MEP50 (Q9BQA1 other isoform, or with tags, fused parts or gaps partner): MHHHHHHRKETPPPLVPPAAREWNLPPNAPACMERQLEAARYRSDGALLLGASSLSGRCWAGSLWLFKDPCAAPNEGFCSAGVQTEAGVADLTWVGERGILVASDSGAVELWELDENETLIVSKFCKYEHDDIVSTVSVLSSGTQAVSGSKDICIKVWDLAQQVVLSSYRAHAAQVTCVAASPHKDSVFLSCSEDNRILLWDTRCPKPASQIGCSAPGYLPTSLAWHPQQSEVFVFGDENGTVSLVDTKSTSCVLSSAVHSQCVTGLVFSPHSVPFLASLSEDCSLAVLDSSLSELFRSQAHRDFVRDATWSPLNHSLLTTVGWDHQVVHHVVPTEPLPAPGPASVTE

COc1cccc(OCC(=O)NCC(O)CN2CCc3ccccc3C2)c1 (centres unmarked) [Compound 20, N-(3-(3,4-dihydroisoquinolin-2(1H)-yl)-2-hydroxypropyl)-2-(3-methoxyphenoxy)acetamide]
IC50: < 0.1 µM

CN(C)c1cccc(OCC(=O)NCC(O)CN2CCc3ccccc3C2)c1S(N)(=O)=O (centres unmarked) [Compound 169]
IC50: < 0.1 µM

O=C(CCc1nc2ccccc2[nH]1)NC[C@@H](O)CN1CCc2ccccc2C1 [Compound 192, (R)-3-(1H-benzo[d]imidazol-2-yl)-N-(3-(3,4-dihydroisoquinolin-2(1H)-yl)-2-hydroxypropyl)propanamide]
IC50: 0.101 to 1 µM

Cn1ncc2ccc(OCC(=O)NCC(O)CN3CCc4ccccc4C3)cc21 (centres unmarked) [Compound 23, N-(3-(3,4-dihydroisoquinolin-2(1H)-yl)-2-hydroxypropyl)-2-((1-methyl-1H-indazol-6-yl)oxy)acetamide]
IC50: < 0.1 µM

O=C(NCC(O)CN1CCc2ccccc2C1)C(O)c1ccccc1 (centres unmarked) [Compound 165]
IC50: 0.101 to 1 µM

CN(C)CCN(C)S(=O)(=O)c1ccccc1OCC(=O)NC[C@@H](O)CN1CCc2ccccc2C1 [Compound 191]
IC50: < 0.1 µM

O=C(COc1cccc2nccnc12)NCC(O)CN1CCc2ccccc2C1 (centres unmarked) [Compound 92]
IC50: < 0.1 µM

CN1CCN(CCOCC(=O)NCC(O)CN2CCc3ccccc3C2)CC1 (centres unmarked) [Compound 176]
IC50: 1 to 10 µM

O=C(COc1cccc(-c2ncc[nH]2)c1)NC[C@@H](O)CN1CCc2ccccc2C1 [Compound 186]
IC50: 1 to 10 µM

O=C(COc1ccccc1S(=O)(=O)N1CCOCC1)NCC(O)CN1CCc2ccccc2C1 (centres unmarked) [Compound 149]
IC50: < 0.1 µM

C[C@H](Oc1cccc2cccnc12)C(=O)NC[C@H](O)CN1CCc2ccccc2C1 [Compound 76, (S)—N—((S)-3-(3,4-dihydroisoquinolin-2(1H)-yl)-2-hydroxypropyl)-2-(quinolin-8-yloxy)propanamide]
IC50: < 0.1 µM

O=C(COc1ccccc1N1CCOCC1)NCC(O)CN1CCc2ccccc2C1 (centres unmarked) [Compound 49, N-(3-(3,4-dihydroisoquinolin-2(1H)-yl)-2-hydroxypropyl)-2-(2-morpholinophenoxy)acetamide]
IC50: < 0.1 µM

O=C(COc1cccc(NC2CCOCC2)c1)NCC(O)CN1CCc2ccccc2C1 (centres unmarked) [Compound 93]
IC50: < 0.1 µM

Cn1ncc2ccc(OCC(=O)NC[C@@H](O)CN3CCc4ccccc4C3)cc21 [Compound 160]
IC50: 0.101 to 1 µM

O=C(COc1ccccc1N1CCNCC1)NC[C@@H](O)CN1CCc2ccccc2C1 [Compound 270]
IC50: 1 to 10 µM

O=C(COc1cccc2cccnc12)NCC(O)CN1Cc2ccccc2C(F)(F)C1 (centres unmarked) [Compound 144]
IC50: > 10 µM

O=C(COc1ccccc1-c1cc[nH]n1)NC[C@@H](O)CN1CCc2ccccc2C1 [Compound 67]
IC50: < 0.1 µM

Cn1ncc2c(OCC(=O)NCC(O)CN3CCc4ccccc4C3)cccc21 (centres unmarked) [Compound 82]
IC50: < 0.1 µM

CC(=O)N1CCc2c(cccc2OCC(=O)NCC(O)CN2CCc3ccccc3C2)C1 (centres unmarked) [Compound 101]
IC50: < 0.1 µM

O=C(COc1cccc(C(=O)NCCn2ccnc2)c1)NC[C@@H](O)CN1CCc2ccccc2C1 [Compound 230]
IC50: 1 to 10 µM

CN1CCN(S(=O)(=O)c2ccccc2OCC(=O)NCC(O)CN2CCc3ccccc3C2)CC1 (centres unmarked) [Compound 108]
IC50: < 0.1 µM

O=C(COc1cccc2c1CCCC2)NCC(O)CN1CCc2ccccc2C1 (centres unmarked) [Compound 64]
IC50: < 0.1 µM

CC(=O)Nc1ccncc1OCC(=O)NCC(O)CN1CCc2ccccc2C1 (centres unmarked) [Compound 162]
IC50: 1 to 10 µM

CS(=O)(=O)N1CCc2c(cccc2OCC(=O)NCC(O)CN2CCc3ccccc3C2)C1 (centres unmarked) [Compound 102, N-(3-(3,4-dihydroisoquinolin-2(1H)-yl)-2-hydroxypropyl)-2-((2-(methylsulfonyl)-1,2,3,4-tetrahydroisoquinolin-5-yl)oxy)acetamide]
IC50: < 0.1 µM

O=C(COc1cccc2cnncc12)NCC(O)CN1CCc2ccccc2C1 (centres unmarked) [Compound 154]
IC50: 1 to 10 µM

O=C(COc1cccc(C(=O)NCCN2CCOCC2)c1)NC[C@@H](O)CN1CCc2ccccc2C1 [Compound 188]
IC50: 1 to 10 µM

COc1ccccc1OCC(=O)NCC(O)CN1CCc2ccccc2C1 (centres unmarked) [Compound 22]
IC50: < 0.1 µM

O=C(CCn1cnc2ccccc21)NC[C@H](O)CN1CCc2ccccc2C1 [Compound 248]
IC50: 1 to 10 µM

CC(Oc1cccc2cccnc12)C(=O)NCC(O)CN1CCc2ccccc2C1 (centres unmarked) [Compound 39, N-(3-(3,4-dihydroisoquinolin-2(1H)-yl)-2-hydroxypropyl)-2-(quinolin-8-yloxy)propanamide]
IC50: < 0.1 µM

CC(Oc1ccccc1S(N)(=O)=O)C(=O)NCC(O)CN1CCc2ccccc2C1 (centres unmarked) [Compound 126]
IC50: > 50 µM

CC(=O)N1CCN(c2ccccc2OCC(=O)NCC(O)CN2CCc3ccccc3C2)CC1 (centres unmarked) [Compound 90]
IC50: < 0.1 µM

CN1CCN(S(=O)(=O)c2ccccc2OCC(=O)NC[C@@H](O)CN2CCc3ccccc3C2)CC1CO (some centres unmarked) [Compound 233]
IC50: 1 to 10 µM

CS(=O)(=O)Nc1ccccc1OCC(=O)NCC(O)CN1CCc2ccccc2C1 (centres unmarked) [Compound 53]
IC50: < 0.1 µM

Cn1cncc1-c1ccccc1OCC(=O)NCC(O)CN1CCc2ccccc2C1 (centres unmarked) [Compound 156]
IC50: 1 to 10 µM

O=C(COc1cccc(C(=O)NCCc2c[nH]cn2)c1)NC[C@@H](O)CN1CCc2ccccc2C1 [Compound 189]
IC50: 0.101 to 1 µM

CNS(=O)(=O)c1ccccc1OCC(=O)NCC(O)CN1CCc2ccccc2C1 (centres unmarked) [Compound 123]
IC50: < 0.1 µM

O=C(COc1ccccc1[C@H]1CCCCN1)NC[C@@H](O)CN1CCc2ccccc2C1 [Compound 235]
IC50: 1 to 10 µM

CN1CCc2c(cccc2OCC(=O)NCC(O)CN2CCc3ccccc3C2)C1 (centres unmarked) [Compound 99]
IC50: < 0.1 µM

CN1C(=O)COc2cccc(OCC(=O)NCC(O)CN3CCc4ccccc4C3)c21 (centres unmarked) [Compound 80, N-(3-(3,4-Dihydroisoquinolin-2(1H)-yl)-2-hydroxypropyl)-2-(4-methyl-3-oxo-3,4-dihydro-2H-benzo[b][1,4]oxazin-5-yloxy)acetamide]
IC50: < 0.1 µM

O=C(COc1nc2ccccc2[nH]1)NC[C@@H](O)CN1CCc2ccccc2C1 [Compound 212]
IC50: 1 to 10 µM

Cn1cnc(-c2ccccc2OCC(=O)NCC(O)CN2CCc3ccccc3C2)c1 (centres unmarked) [Compound 153]
IC50: < 0.1 µM

COc1ccc2cccc(OCC(=O)NC[C@@H](O)CN3CCc4ccccc4C3)c2n1 [Compound 98, (R)—N-(3-(3,4-dihydroisoquinolin-2(1H)-yl)-2-hydroxypropyl)-2-((2-methoxyquinolin-8-yl)oxy)acetamide]
IC50: < 0.1 µM

CS(=O)(=O)Nc1cccc(OCC(=O)NCC(O)CN2CCc3ccccc3C2)c1 (centres unmarked) [Compound 28, N-(3-(3,4-dihydroisoquinolin-2(1H)-yl)-2-hydroxypropyl)-2-(3-(methylsulfonamido)phenoxy)acetamide]
IC50: < 0.1 µM

CN(C)c1cccnc1OCC(=O)NCC(O)CN1CCc2ccccc2C1 (centres unmarked) [Compound 133]
IC50: > 10 µM

O=C(COc1ccccc1-c1cc[nH]n1)NCC(O)CN1CCc2ccccc2C1 (centres unmarked) [Compound 50, 2-(2-(1H-pyrazol-3-yl)phenoxy)-N-(3-(3,4-dihydroisoquinolin-2(1H)-yl)-2-hydroxypropyl)acetamide]
IC50: < 0.1 µM

O=C(COc1ccccc1C1CCNCC1)NCC(O)CN1CCc2ccccc2C1 (centres unmarked) [Compound 103]
IC50: < 0.1 µM

CC(C)(Oc1cccc2cccnc12)C(=O)NCC(O)CN1CCc2ccccc2C1 (centres unmarked) [Compound 43, N-(3-(3,4-dihydroisoquinolin-2(1H)-yl)-2-hydroxypropyl)-2-methyl-2-(quinolin-8-yloxy)propanamide]
IC50: < 0.1 µM

Cn1ncc2ccc(OCC(=O)NC[C@H](O)CN3CCc4ccccc4C3)cc21 [Compound 159]
IC50: < 0.1 µM

O=C(COc1cncc(C(=O)N2CCOCC2)c1)NCC(O)CN1CCc2ccccc2C1 (centres unmarked) [Compound 161]
IC50: 0.101 to 1 µM

CC(NC(=O)COc1ccccc1S(N)(=O)=O)C(O)CN1CCc2ccccc2C1 (centres unmarked) [Compound 170]
IC50: < 0.1 µM

CC(=O)Nc1cncc(OCC(=O)NCC(O)CN2CCc3ccccc3C2)c1 (centres unmarked) [Compound 148]
IC50: > 10 µM

N-(3-(3,4-dihydroisoquinolin-2(1H)-yl)-2-hydroxypropyl)-2-((5,6,7,8-tetrahydronaphthalen-1-yl)oxy)acetamide [Compound 62]
IC50: 1 to 10 µM

O=C(COc1cccc2c1CNCC2)NCC(O)CN1CCc2ccccc2C1 (centres unmarked) [Compound 119]
IC50: < 0.1 µM
